Measurements published in patent US20080312184A1 (priority 2005, published 2008).
Read-outs that look alike come from different tables or passages of the source.

Test system: late blight phenylamide-resistant strain (zoospore+zoosporangia)
Assay type: in vivo, tomatoes (cultivar: sekai-ichi)
Conditions: single active ingredient
[1] = Table 3, treated concentration 10 ppm, examined after 5 days
[2] = Table 3, treated concentration 5 ppm, examined after 5 days

In the case of `C[C@@]1(c2ccc(Oc3ccccc3)cc2)OC(=O)N(Nc2ccccc2)C1=O` (racemic) [Famoxadone, famoxadone], the “Control Value” (Table 3, treated concentration 20 ppm, examined after 5 days) is reported as 62.

With `CC(C)CC(C)c1sccc1NC(=O)c1cn(C)nc1C(F)(F)F` (racemic) [P (penthiopyrad), (RS)—N-[2-(1,3-dimethylbutyl)thiophen-3-yl]-1-methyl-3-tri fluoromethyl-1H-pyrazole-4-carboxamide] the “Control Value” [1] was 20 and the “Control Value” (Table 9 (Example B), treated concentration 10 ppm) was 20.

For `CC(C)OC(=O)N[C@H](C(=O)N[C@H](C)c1nc2ccc(F)cc2s1)C(C)C` [Benthiavalicarb-isopropyl, benthiavalicarb-isopropyl], the “Control Value” [2] was 70.

In the case of `Cc1ccc(-c2c(Cl)nc(C#N)n2S(=O)(=O)N(C)C)cc1` [Cyazofamid, cyazofamid], the “Control Value” [1] is reported as 70.

For `CCNc1nc(CC)c(C(=O)NC(C#N)c2cccs2)s1` (centres unmarked) [Ethaboxam, ethaboxam], the “Control Value” [1] was 62.

For `CSC1=N[C@@](C)(c2ccccc2)C(=O)N1Nc1ccccc1` [Fenamidone, fenamidone], the “Control Value” [1] was 58.

`Cc1ccc(C(C)NC(=O)[C@@H](NC(=O)OC(C)C)C(C)C)cc1` (some centres unmarked) [Iprovalicarb, iprovalicarb] was tested, and the “Control Value” [2] was 70.

For `COC(=O)N(OC)c1ccccc1COc1ccn(-c2ccc(Cl)cc2)n1` [Pyraclostrobin, pyraclostrobin], the “Control Value” (Table 9 (Example B), treated concentration 5 ppm) was 62.

`CCC(C)(NC(=O)c1cc(Cl)c(C)c(Cl)c1)C(=O)CCl` (centres unmarked) [Zoxamide, zoxamide] was tested, and the “Control Value” [1] was 60.

metiram was tested, and the “Control Value” (Table 3, treated concentration 50 ppm, examined after 5 days) was 56.
